What all share (type): functional, cell-based
The subject of experiment [1] is HepG2. The experiment is described as follows: Antiproliferative activity against human HepG2 by MTT assay. (Tetrazolium assays rely on reduction of a dye to a coloured formazan, in cell work by metabolically active cells.)
Experiment [2] deals with HeLa. The experiment is described as follows: Antiproliferative activity against human HeLa by MTT assay.
The subject of experiment [3] is A549. The experiment is described as follows: Antiproliferative activity against human A549 by MTT assay.
For experiment [4], the system named is AGS. Description: Antiproliferative activity against human AGS by MTT assay.

Each structure is given as a SMILES string.

Experimental findings from ChEMBL document CHEMBL1138873, “A novel antiproliferative agent, phenylpyridineylbutenol, isolated from Streptomyces sp” (Bioorg Med Chem Lett, 2006) are described below.

A word on the IC50: it is the concentration needed to halve the response being measured.

Regarding `OC/C=C(\Cc1ccccc1)c1ccccn1`, the half-inhibitory concentration (IC50) in experiment [1] was determined as 1600 µM; in experiment [2], 1380 µM; in experiment [3] it was 1130 µM; in experiment [4], 1980 µM.
